The record followed here is EP0412814A2, “Pyridazinones having cardiotonic and beta blocking activity” (GLAXO WELLCOME INC., priority 1989, dated 1991).

Where two headings read alike, the source gives them in different places.

For one experiment, the system named is rat aorta. As to the kind of experiment: Rat aorta protocol: relaxation of phenylephrine-contracted rat aorta rings (endothelium removed). The following applies: percentage of maximal relaxation produced by nitroprusside (1 X 10⁻⁴ M), at the highest dose tested (100 micromolar), read-out: maximal response. On the procedure: Such vasorelaxation appears to be related to inhibition of the phosphodiesterase (PDE) isozyme related to the cardiac sarcoplasmic reticulum. Thus, relaxation of rat aorta can be used as a screen to eliminate compounds which are not PDE inhibitors prior to testing for actual inotropic activity.
Rings of rat aorta (endothelium removed) were prepared for the measurement of isometric force in isolated tissue organ chambers essentially as previously described by T.J. Rimele et al in the Journal of Pharmacol. Exp. Ther. 245:102-111 (1988). The experimental portion of the protocol began with the addition of methylene blue (1 X 10⁻⁵ M) and propranolol (1 X 10⁻⁶ M) to each organ chamber to inhibit basal cGMP accumulation due to soluble guanylate cyclase and beta-adrenoceptors. Phenylephrine (1 X 10⁻⁷ M) was then added and the rings were allowed to obtain a stable contractile response after which time, the test compound was added in a cumulative fashion. The relaxation induced by each concentration of the test compound was expressed as a percentage of the maximal relaxation produced by nitroprusside (1 X 10⁻⁴ M). […] The IC₅₀ (concentration of test compound which produced a relaxation equivalent to 50% of the maximal relaxation induced by nitroprusside) was determined for each tissue. […]

The target of the next experiment is T1, Beta-1 adrenoceptor (Rattus norvegicus, UniProt P18090).
T1 construct: rat brain cortices were used as the source of membrane vesicles; from tissue; host or cells: rat brain cortex membranes
T1 sequence (P18090 whole entry): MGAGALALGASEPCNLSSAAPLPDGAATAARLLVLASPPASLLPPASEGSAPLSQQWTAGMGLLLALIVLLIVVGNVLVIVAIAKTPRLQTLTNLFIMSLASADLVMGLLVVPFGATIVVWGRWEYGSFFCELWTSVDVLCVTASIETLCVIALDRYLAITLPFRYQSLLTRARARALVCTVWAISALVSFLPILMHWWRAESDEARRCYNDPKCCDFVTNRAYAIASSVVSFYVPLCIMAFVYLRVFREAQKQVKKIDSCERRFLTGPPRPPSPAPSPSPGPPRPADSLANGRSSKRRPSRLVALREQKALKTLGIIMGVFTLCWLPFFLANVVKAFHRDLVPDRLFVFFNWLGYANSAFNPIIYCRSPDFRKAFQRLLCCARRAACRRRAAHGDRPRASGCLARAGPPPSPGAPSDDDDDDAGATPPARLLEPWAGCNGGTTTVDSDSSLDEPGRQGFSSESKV
Briefly: Beta adrenoceptor binding assay: [I-125]-Pindolol displacement from rat brain cortical membranes. The following applies: IC₅₀ for displacement of [I-125]-Pindolol, 22°C, two hours, read-out: pIC₅₀ (converted). The method, then: Because of its receptor density rat brain cortices were used as the source of membrane vesicles to be used in the receptor binding assays. Freshly excised cortexes were homogenized in 20 volumes (w/v) 50 mM TRIS HCl Buffer (pH 7.5), with a glass/Teflon homogenizer following the procedure previously described by T.J. Rimele in J. Pharmacol. Exp. Ther. 239: 1-8, 1986. Beta-1 adrenoceptor binding activity was determined following methods described by M.H. Randall, et al, J. Med. Chem. 20: 1090-1094, 1977, and J. Homberger, et al in Mol. Pharmacol. 20: 453-469, 1981. The incubation mixture consisted of; 26 microliters of 50 mM TRIS/HCl, 10 mM MgCl₂ pH 7.6 buffer, 25 microliters of test drug or 10-6 pindolol to define nonspecific binding, 100 microliters of [I-125]-Pindolol (2200 Ci/mM) at a final concentration of 10-9, and 100 microliters of brain cortical membranes. […] The radioactivity in each filter containing the trapped membrane particles was counted with a gamma counter. […] All specific binding values obtained in the presence of test compounds were expressed as the percentage of specific binding displaced by the individual agents. The resultant values were plotted on a log plot of concentration of test compound vs. percentage of displacement and an IC₅₀ value (drug concentration which produces 50% displacement) determined. […]

The subject of experiment [1] is barbiturate-anesthetized dogs. Briefly: Anesthetized dog: inotropic effect (dP/dt) and inhibition of the isoproterenol response. The class given is in vivo. The note with it: for ED50: Canis lupus familiaris, iv, i.v. infusion, cumulative dose. On the procedure:
Inotropic effects were evaluated in barbiturate-anesthetized dogs by differentiating left intraventricular pressure. This procedure was carried out essentially as described by M.K. Grizzel et al in the FASEB Journal, Vol. 3, page 1039, abstract 4728 (1989). Purpose breed mongrel dogs (14-20 kg) of either sex were anesthetized with a mixture of sodium pentobarbital (15 mg/kg) and sodium barbital (300 mg/kg) i.v., intubated with a cuffed endotracheal tube and ventilated with a respirator (Harvard Apparatus, model 613, South Natick, MA) with room air (22 rpm,10-12 ml/kg/stroke). A 5F pressure transducer (Millar Instruments, Mikkro-tip Houston, TX) was inserted through the right carotid artery into the left ventricle to monitor intraventricular pressure. The left ventricular pressure signal was differentiated (using a 100 Hz low pass differential amplifier, Gould Inc., Cleveland, OH) to obtain its maximal rate of rise (+dP/dt), and used to trigger a biotach amplifier to record heart rate. Cardiac output was determined via thermodilution with a Spectramed computer (Starcom, Oxnard, CA) and a 5F Swan Ganz catheter which was inserted into the right jugular vein and positioned in the pulmonary artery. The femoral artery was cannulated for monitoring arterial blood pressure with a pressure transducer (Micron model MP15D, Simi Valley, CA). A lead II electrocardiogram was measured using subcutaneous electrodes. […] Rectal temperature was monitored and maintained at 37-38°C with a heating pad (Baxter Health Care model K20, McGaw Park, IL). All variables were recorded using a Gould 3800S physiograph.
Isoproterenol ([…]) was injected i.v. into the cephalic vein at 10 min intervals except for when the test drug infusion was begun. […] Inhibition of the isoproterenol responses on contractility (dP/dt), heart rate and diastolic blood pressure were determined at each dose of test compound. The inotropic effect of each compound was determined by comparing the level of dP/dt at the end of each 10 min period to that of the level of dP/dt just prior to the infusion of test compound. […]

The test system of the next experiment is guinea-pigs left atria. Briefly: Guinea pig left atria test: force of atrial contraction. The note with it: Cavia porcellus. From the text:
Male Hartley guinea-pigs (300-400 grams) were sacrificed by cervical dislocation or carbon dioxide asphyxiation. The hearts were immediately removed and placed in oxygenated Krebs-Henseleit buffer (composition (millimolar): Na⁺ 143, K⁺ 5.9, Ca⁺⁺ 1.25, Mg⁺⁺ 1.2, Cl⁻ 128, HCO₃⁻ 25, SO₄⁻⁻ 1.2, H₂PO₄⁻ 1.0, and D-glucose 10). Left atria were dissected away from the remainder of the heart and mounted on holders against platinum punctate electrodes. The mounted atria were placed in tissue baths maintained at 31°C and oxygenated with 95% 0₂-5% CO₂ under 1.0 gram resting tension. The atria were stimulated through the punctate electrode and an external platimum electrode at the threshold voltage plus thirty percent, one Hertz frequency and five to ten milliseconds duration. Contractions were detected with a force displacement transducer and recorded on a physiograph. […]
Direct effects of the test compounds on the force of atrial contraction were observed and recorded after addition of the compounds to the tissue bath. […] Responses to the test compounds and forskolin were expressed as a percentage of the maximal response to forskolin. EC₅₀ values for the test compounds were calculated as the concentration of the compound neceesary to produce an inotropic response half that of the maximal response produced by the test compound. […]

Consider `O=C(COc1ccc(C2=NNC(=O)CC2)cc1Cl)NCCNC[C@H](O)COc1ccccc1` [Example 19, 6-{4-[N-[2-[3-phenoxy-2-hydroxypropylamino]ethyl]carbamoylmethoxy]-3-chlorophenyl}-4,5-dihydro-3(2H)-pyridazinone], for which the Emax at 100 µM with rat aorta is 100%; in the experiment on guinea-pigs left atria (percentage of the maximal response to forskolin, at 100 micromolar, propranolol and phentolamine (1.0 micromolar) present) it was 83%. Moreover, on Beta-1 adrenoceptor, the IC50 was 0.0269 µM. For the same compound, the ED50 in experiment [1] (50% increase in dP/dt compared to a baseline established prior to drug infusion, read-out: inotropic ED₅₀) is 0.114 µmol/kg; in experiment [1] (50% inhibition of the dP/dt response to isoproterenol, read-out: ED₅₀ for inhibition of the isoproterenol response), 0.469 µmol/kg. The “inotropic effects with atenolol” value in experiment [1] (whether the inotropic effects are blocked by atenolol) is “not blocked by atenolol”. Moreover, the EC50 in the experiment with guinea-pigs left atria (concentration producing an inotropic response half that of the maximal response produced by the test compound, read-out: ED₅₀) is 9 µM.
